Tests used:
Type in all cases: functional, organism-based
Rotavirus [1] = assay: Inhibitory activity against NCDV(bovine) rotavirus strain.
Rotavirus [2] = assay: Inhibitory activity against SA11 (simian) rotavirus strain.
Rotavirus [3] = assay: Inhibitory activity against UK(bovine) rotavirus strain.
Rotavirus [4] = assay: Inhibitory activity against Wa(human) rotavirus strain.

Q: What does the source list for COC1OC(CO)C(SC2(C(=O)O)CC(O)C(NC(C)=O)C([C@H](O)[C@H](O)CO)O2)C(O)C1O (some centres undefined)?
A: IC50 (Rotavirus [1]; Rotavirus): 6.25 mM; IC50 (Rotavirus [2]; Rotavirus): 25 mM; IC50 (Rotavirus [3]): > 25 mM; IC50 (Rotavirus [4]): > 25 mM

Q: Which results are given for CC(=O)NC1C(O)CC(SC[C@@H](O)C2OC3OC(C)(C)OC3C2O)(C(=O)O)OC1[C@H](O)[C@H](O)CO (some centres undefined)?
A: IC50 (Rotavirus [1]; Rotavirus): 6.25 mM; IC50 (Rotavirus [2]; Rotavirus): 6.25 mM; IC50 (Rotavirus [3]): 25 mM; IC50 (Rotavirus [4]): > 25 mM

Q: How did the IC50 (Rotavirus [1]; Rotavirus) turn out when COC1OC(CSC2(C(=O)O)CC(O)C(NC(C)=O)C([C@H](O)[C@H](O)CO)O2)C(O)C(O)C1O (stereo in doubt; 16) was run?
A: 6.25 mM

Q: And the IC50 (Rotavirus [2]; Rotavirus)?
A: 12.5 mM

Q: What about the IC50 (Rotavirus [3]) of the same molecule?
A: > 25 mM

Q: What about the IC50 (Rotavirus [4]) of the same molecule?
A: > 25 mM

Q: For CO[C@H]1O[C@H](CSC2(C(=O)O)CC(O)C(NC(C)=O)C(C(O)[C@H](O)CO)O2)[C@@H](O)[C@@H]1O (single isomer, unassigned), which IC50 (Rotavirus [1]; Rotavirus) is on record?
A: 6.25 mM

Q: And the IC50 (Rotavirus [2]; Rotavirus)?
A: > 25 mM

Q: What about the IC50 (Rotavirus [3]) of the same molecule?
A: > 25 mM

Q: And the IC50 (Rotavirus [4])?
A: > 25 mM

Q: How did the IC50 (Rotavirus [1]; Rotavirus) turn out when COC1OC(CSC2(C(=O)O)CC(O)C(NC(C)=O)C([C@H](O)[C@H](O)CO)O2)C(O)C(O)C1NC(C)=O (some centres undefined) was run?
A: 6.25 mM

Q: What about the IC50 (Rotavirus [2]; Rotavirus) of the same molecule?
A: 25 mM

Q: And the IC50 (Rotavirus [3])?
A: > 25 mM

Q: What about the IC50 (Rotavirus [4]) of the same molecule?
A: > 25 mM

Q: What does the source list for COC1OC(CSC2(C(=O)O)CC(O)C(NC(C)=O)C([C@H](O)[C@H](O)COC(C)=O)O2)C(O)C(O)C1NC(C)=O (some centres undefined)?
A: IC50 (Rotavirus [1]; Rotavirus): 0.35 mM; IC50 (Rotavirus [2]; Rotavirus): > 25 mM; IC50 (Rotavirus [3]): 12.5 mM; IC50 (Rotavirus [4]): > 25 mM

Q: Which results are given for COC1OC(CSC2(C(=O)O)CC(O)C(NC(C)=O)C([C@H](O)[C@H](O)COC(C)=O)O2)C(O)C(O)C1O (some centres undefined)?
A: IC50 (Rotavirus [1]; Rotavirus): 1.5 mM; IC50 (Rotavirus [2]; Rotavirus): > 25 mM; IC50 (Rotavirus [3]): 25 mM; IC50 (Rotavirus [4]): > 25 mM

Q: How did the IC50 (Rotavirus [1]; Rotavirus) turn out when COC1OC(CSC2(C(=O)O)CC(O)C(NC(C)=O)C([C@H](O)[C@H](O)COC(C)=O)O2)C(OC(C)=O)C(O)C1O (some centres undefined) was run?
A: 1.5 mM

Q: And the IC50 (Rotavirus [2]; Rotavirus)?
A: 25 mM

Q: And the IC50 (Rotavirus [3])?
A: 12.5 mM

Q: And the IC50 (Rotavirus [4])?
A: > 25 mM

Q: What does the source list for COC1OC(CSC2(C(=O)O)CC(O)C(NC(C)=O)C([C@H](O)[C@H](O)CO)O2)C(O)C(O)C1O (stereo in doubt; 14)?
A: IC50 (Rotavirus [1]): 6.25 mM; IC50 (Rotavirus [2]): 25 mM
